Legend:
[1] = Inhibition of Plasmodium vivax DHODH expressed in Escherichia coli BL21-DE3 using L-dihydroorotate as substrate by steady-state DCIP method
[2] = Inhibition of Plasmodium falciparum DHODH expressed in Escherichia coli BL21-DE3 using L-dihydroorotate as substrate by steady-state DCIP method
[3] = system: Plasmodium falciparum
[4] = target: Dihydroorotate dehydrogenase (quinone), mitochondrial (Homo sapiens, UniProt Q02127); assay type: ADME
[5] = system: Plasmodium falciparum; experiment: microbe, parasite or virus in culture; conditions: 3D7, 72 h

Chain of Dihydroorotate dehydrogenase (quinone), mitochondrial (Q02127 whole entry): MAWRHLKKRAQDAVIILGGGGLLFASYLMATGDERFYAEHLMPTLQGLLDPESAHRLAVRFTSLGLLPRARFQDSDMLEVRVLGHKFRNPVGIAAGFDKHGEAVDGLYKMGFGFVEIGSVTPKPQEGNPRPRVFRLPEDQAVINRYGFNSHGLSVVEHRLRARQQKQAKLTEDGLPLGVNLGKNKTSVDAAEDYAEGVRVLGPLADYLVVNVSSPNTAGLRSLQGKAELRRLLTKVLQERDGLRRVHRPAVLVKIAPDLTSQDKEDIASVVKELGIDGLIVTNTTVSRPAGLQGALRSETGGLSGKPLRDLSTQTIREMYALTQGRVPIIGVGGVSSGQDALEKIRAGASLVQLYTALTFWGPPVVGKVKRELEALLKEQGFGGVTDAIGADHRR

| Structure (SMILES) | IC50 [1] [nM] | IC50 [2] [nM] | EC50 [3] [nM] | IC50 [4] [nM] | EC50 [5] [nM] |
| --- | --- | --- | --- | --- | --- |
| Cc1cc(C(C)NC(=O)c2[nH]cc(Cc3ccc(C(F)(F)F)nc3)c2C)n[nH]1 (stereo in doubt; form 1) | 69 | 100 | 20 |  |  |
| Cc1c(Cc2ccc(C(F)(F)F)nc2)c[nH]c1C(=O)NC(C)c1cc(C(N)=O)[nH]n1 (racemic) | 430 | 650 | 51 |  |  |
| Cc1c(C2(c3ccc(C(F)(F)F)c(F)c3)CC2)c[nH]c1C(=O)NC(C)c1nc[nH]n1 (stereo in doubt; form 1) | 61 | 110 | 29 |  |  |
| Cc1[nH]c(C(=O)NC(C)c2cn[nH]c2)c(C)c1Cc1ccc(C(F)(F)F)nc1 (stereo in doubt; form 1) | 88 | 87 | 6 |  |  |
| CCOC(=O)c1[nH]cc(Cc2nc3ccccc3o2)c1C |  | 900 |  | > 100000 | 1600 |
| Cc1cc(C(C)NC(=O)c2[nH]cc(Cc3ccc(C(F)(F)F)cc3)c2C)no1 (stereo in doubt; form 1) | 13 | 46 | 170 |  |  |
| Cc1cc(C(C)NC(=O)c2[nH]cc(C(C#N)c3ccc(C(F)(F)F)nc3)c2C)no1 (racemic) | 410 | 270 |  | > 100000 | 21 |
| Cc1c(Cc2ccc(C(F)(F)F)nc2F)c[nH]c1C(=O)NC(C)c1nc[nH]n1 (racemic) | 730 | 990 |  | > 100000 | 580 |
| Cc1cc(C(C)NC(=O)c2[nH]cc(C(C)c3ccc(C(F)(F)F)nc3)c2C)no1 (racemic) | 74 | 79 |  | > 100000 | 3 |
| Cc1c(C2(c3ccc(C(F)(F)F)nc3)CC2)c[nH]c1C(=O)N1CC(F)(F)C1 | 17 | 21 |  | > 100000 | 2 |
| Cc1c(Cc2ccc(C(F)(F)F)nc2F)c[nH]c1C(=O)NC1CC1 | 5.4 | 11 |  | > 100000 | 3.1 |
| N#Cc1c(Cc2ccc(C(F)(F)F)nc2)c[nH]c1C(=O)NC1CC1 | 430 | 410 |  | > 100000 | 250 |
| Cc1[nH]c(C(=O)NC(C)c2cnn(C)c2)c(C)c1Cc1ccc(C(F)(F)F)nc1 (stereo in doubt; form 2) | 76 | 88 | 17 |  |  |
| Cc1[nH]c(C(=O)N[C@H](C)c2cn[nH]c2)c(C#N)c1Cc1ccc(C(F)(F)F)nc1 (stereo in doubt; form 2) | 440 | 660 | 170 |  |  |
| Cc1c(Cc2ccc(C(F)(F)F)nc2)c[nH]c1C(=O)NC(C)c1cnn(C)c1 (racemic) | 62 |  | 5.5 |  |  |
| Cc1cc(C(C)NC(=O)c2[nH]cc(-c3c[nH]c4cc(C(F)(F)F)ccc34)c2C)no1 (stereo in doubt; form 2) | 58 | 660 | 85 | > 100000 |  |
| Cc1cc(C(C)NC(=O)c2[nH]cc(C3(c4ccc(C(F)(F)F)nc4)CC3)c2C)no1 (stereo in doubt; form 1) | 30 | 16 | 11 |  |  |
| Cc1nc(C(C)NC(=O)c2[nH]cc(Cc3ccc(C(F)(F)F)nc3)c2C)c[nH]1 (racemic) | 500 | 13000 |  | > 100000 | 380 |
| Cc1c(Cc2ccc(C(F)(F)F)cc2)c[nH]c1C(=O)NC(C)c1cc(Br)no1 (racemic) | 39 | 380 |  | > 100000 | 260 |
| Cc1c(C2(c3ccc(C(F)(F)F)nc3)CC2)c[nH]c1C(=O)NC1CC1 | 11 | 19 |  | > 100000 | > 10000 |

| Structure (SMILES) | IC50 [1] [nM] | IC50 [2] [nM] | EC50 [3] [nM] | IC50 [4] [nM] | EC50 [5] [nM] |
| --- | --- | --- | --- | --- | --- |
| Cc1c(Cc2nc3ccccc3o2)c[nH]c1C(=O)NC1CC1 |  | 670 |  | > 100000 | 600 |
| Cc1c(Cc2ccc(C(F)(F)F)nc2)c[nH]c1C(=O)NC(C)c1cc(C(N)=O)[nH]n1 (stereo in doubt; form 1) | 230 | 35000 | 24 |  |  |
| Cc1c(Cc2ccc(C(F)(F)F)nc2)c[nH]c1C(=O)NC(C)c1cn[nH]c1 (racemic) | 48 | 61 | 9 |  |  |
| Cc1cc(C(C)NC(=O)c2[nH]c(C)c(Cc3ccc(C(F)(F)F)nc3)c2C#N)no1 (stereo in doubt; form 2) | 99 | 95 | 64 |  |  |
| Cc1cc(C(C)NC(=O)c2[nH]cc(-c3n[nH]c4cc(C(F)(F)F)ccc34)c2C)no1 (stereo in doubt; form 2) | 69 | 560 | 62 |  |  |
| Cc1c(Cc2ccc(C(F)(F)F)cc2F)c[nH]c1C(=O)NC1CC1 |  | 44 |  | > 100000 |  |
| Cc1c(Cc2ccc(C(F)(F)F)nc2)c[nH]c1C(=O)NC(C)c1cc(C#N)[nH]n1 (stereo in doubt; form 1) | 83 | 120 | 17 |  |  |
| Cc1c(C2(c3ccc(C(F)(F)F)nc3)CC2)c[nH]c1C(=O)NC(C)c1cc(C(N)=O)[nH]n1 (racemic) | 180 | 260 | 3000 |  |  |
| Cc1cc(C(C)NC(=O)c2[nH]cc(Cc3ccc(C(F)(F)F)nc3)c2C)no1 (racemic) | 30 |  | 9 |  |  |
| Cc1cc(C(C)NC(=O)c2[nH]c(C)c(Cc3ccc(C(F)(F)F)nc3)c2C)no1 (stereo in doubt; form 1) | 30 | 65 | 12 |  |  |
| Cc1c(C(=O)NC(C)c2nc[nH]n2)[nH]c(Cl)c1Cc1ccc(C(F)(F)F)nc1 (stereo in doubt; form 4) | 100 | 290 | 130 |  |  |
| [2H]C([2H])(c1ccc(C(F)(F)F)nc1)c1c[nH]c(C(=O)NC(C)c2cc(C)on2)c1C (stereo in doubt; form 1) | 9.1 |  |  |  | 4.7 |
| Cc1c(Cc2ccc(C(F)(F)F)cc2F)c[nH]c1C(=O)NC(C)c1nc[nH]n1 (stereo in doubt; form 1) | 73 | 35000 | 150 |  |  |
| Cc1c(C2(c3cccc(C(F)(F)F)c3)CC2)c[nH]c1C(=O)NC(C)c1nc[nH]n1 (stereo in doubt; form 1) | 40 | 110 | 48 |  |  |
| Cc1c(C(=O)NC(C)c2nc[nH]n2)[nH]c(Cl)c1Cc1ccc(C(F)(F)F)nc1 (stereo in doubt; form 2) | 63 | 200 | 40 |  |  |
| Cc1c(Cc2ccc(C(F)(F)F)nc2)c[nH]c1C(=O)NC(C)c1nc[nH]n1 (stereo in doubt; form 1) | 110 | 250 | 66 |  |  |
| Cc1[nH]c(C(=O)NC(C)c2nc[nH]n2)c(C)c1Cc1ccc(C(F)(F)F)nc1 (stereo in doubt; form 1) | 140 | 290 | 140 |  |  |
| Cc1c(Cc2ccc(C(F)(F)F)nc2)c[nH]c1C(=O)NC(C)c1nc[nH]n1 (racemic) | 120 | 260 | 160 |  |  |
| Cc1c(Cc2ccc(F)c3ccncc23)c[nH]c1C(=O)NC(C)c1nc[nH]n1 (stereo in doubt; form 1) | 29 | 44 | 9.5 |  |  |
| COC(=O)c1c(Cc2ccc(C(F)(F)F)nc2)c[nH]c1C(=O)NC1CC1 |  | 6400 |  |  | 1400 |

Reference: ChEMBL document CHEMBL4811258, “Potent Antimalarials with Development Potential Identified by Structure-Guided Computational Optimization of a Pyrrole-Based Dihydroorotate Dehydrogenase Inhibitor Series” (J Med Chem, 2021)
